Source: patent publication US20250353847A1, “CRYSTALLINE FORMS OF AN AKRIC3 DEPENDENT KARS INHIBITOR” (Novartis AG, priority 2022, published 2025)
Each block holds one compound with its values, some of them ahead of it.

What was measured:
Assay type in all cases: physicochemical
[1] = Stability in 0.1% solutions or suspensions, 1 week 80° C. (pH stability study); set-up: key to CL color: A: No change of color; B: Slight discoloration; C: Medium discoloration; D: Strong discoloration; —: Test not performed; key to Suspension or clear solution after stress test: ↓: Suspension; *: Clear solution after stress test; details: for CL color / DP[%] degradation products (HPLC area-%): 0.1% solution or suspension; for CL color / DP[%] degradation products (HPLC area-%) / Suspension or clear solution after stress test: 1 week 80° C.; for Suspension or clear solution after stress test: 0.1%
[2] = Solid form transformation / decomposition upon heating
Protocol: DSC thermograms were recorded with a TA Discovery DSC instrument using heat flux compensation (TA Instruments, USA). The TA Discovery instrument was calibrated for temperature and enthalpy according to the manufacturer's instructions using certified reference substances like indium. About 2 mg of sample material was sealed in a standard pin-holed aluminum pan and heated in the DSC from 0° C. to 300° C., at a heating rate of 10° C./min. Dry nitrogen gas, at a flow rate of 50 ml/min was used to purge the DSC equipment during the measurement.
Thermogravimetric analysis was performed using a TA Discovery TGA instrument (TA Instruments, USA). About 2-10 mg of sample material was sealed in a standard aluminum pan with pierced lid and heated in the TGA from 30° C. to 250° C., at a heating rate of 10° C./min. Dry N2 gas, at a flow rate of 20 ml/min was used to purge the TGA equipment during the measurement.

[3] = Competitive slurry experiments and equilibration studies in solvents; details: for Outcome of competitive slurry experiment with Form A: 25° C.
[4] = Solid state bulk stability, 1 week 80° C. tight container and 80° C./75% RH; details: for Bulk (XRPD) solid form after stress / DP[%] degradation products, Bulk (HPLC): Solid state
[5] = Xenon light stress (1200 kLuxh); set-up: key to CL color: A: No change of color; B: Slight discoloration; C: Medium discoloration; D: Strong discoloration; —: Test not performed; details: for Bulk (XRPD) solid form after stress / DP[%] degradation products, Bulk (HPLC) / CL color: Xenon light (1200 kLuxh); for CL color: bulk
Excerpt: (§1) Both solid forms of the Compound of Formula (I) are also stable in mixtures with excipients.

[6] = Stability 1% in excipient mixtures, 2 weeks 50° C.
Excerpt: as §1

[7] = Stability in 0.1% solutions or suspensions, 1 week 80° C. (pH stability study); set-up: key to CL color: A: No change of color; B: Slight discoloration; C: Medium discoloration; D: Strong discoloration; —: Test not performed; key to Suspension or clear solution after stress test: ↓: Suspension; *: Clear solution after stress test; details: for Suspension or clear solution after stress test: 0.1%
Protocol: In a pH stability study, 0.1% suspension/solutions of the compound of Formula (I) in buffer solutions of various pHs were exposed to 80° C. for one week. The compound of Formula (I) degraded the most in pH 1 buffer, about 5%, whereas at high pH degradation was less than 1% after 1 week at 80° C.

[8] = Hygroscopicity / water uptake
Protocol: The maximum water uptake of Form A is 0.6% at 95% relative humidity at 25° C. Form A is stable at water activity of aw=0.7 at 25° C.
Form A is an anhydrous crystalline form with a melting onset of about 208° C. and melting enthalpy of about 111-119 J/g.

[9] = Slurry experiments of Form A and Hydrate HA in media with different water activities
Protocol: Form A is stable at water activities of aw=0.7 and below, whereas the hydrate is stable at aw=0.9 and above. At 40° C. Form A is stable at water activities of aw=0.8 and below, whereas the hydrate is stable at aw>0.95.

[10] = Humidity controlled XRPD
[11] = 80° C. and 80° C. and 75% RH for one week
[12] = 1 week 80° C., tight container, listed as Modification A (NX-27)
[13] = listed as Modification A (NX-27)

Compound: O=C1CC2(CCN(C(=O)NCc3ccc(F)cc3)CC2)Nc2ccc(F)cc21 [compound of Formula (I), 6′-fluoro-N-(4-fluorobenzyl)-4′-oxo-3′,4′-dihydro-1′H-spiro[piperidine-4,2′-quinoline]-1-carboxamide]
Degradation ([1]; 0.1% suspension/solution at high pH, 1 week at 80° C.): less than 1% | Degradation ([1]; 0.1% suspension/solution in pH 1 buffer, 80° C., one week): about 5%

Compound: O=C1CC2(CCN(C(=O)NCc3ccc(F)cc3)CC2)Nc2ccc(F)cc21 [Form D, 6′-fluoro-N-(4-fluorobenzyl)-4′-oxo-3′,4′-dihydro-1′H-spiro[piperidine-4,2′-quinoline]-1-carboxamide]
Temperature of transformation into Form A upon heating ([2]; heating): above 190 °C | Outcome of competitive slurry experiment with Form A [3]: will convert into Form A

Compound: O=C1CC2(CCN(C(=O)NCc3ccc(F)cc3)CC2)Nc2ccc(F)cc21 [amorphous, 6′-fluoro-N-(4-fluorobenzyl)-4′-oxo-3′,4′-dihydro-1′H-spiro[piperidine-4,2′-quinoline]-1-carboxamide]
Chemical stability in the bulk [4, 11]: chemically stable | Solid form change of bulk under stress [4, 11]: crystallized into the crystalline Modification A | Bulk (XRPD) solid form after stress ([4]; 1 week 80° C., tight container): NX Mod A | DP[%] degradation products, Bulk (HPLC) ([4]; 1 week 80° C., tight container): 0.7% | Bulk (XRPD) solid form after stress ([4]; 1 week 80° C./75% RH): NX Mod A | DP[%] degradation products, Bulk (HPLC) ([4]; 1 week 80° C./75% RH): 0.7% | Bulk (XRPD) solid form after stress [5]: No change | DP[%] degradation products, Bulk (HPLC) [5]: 0.7% | CL color [5]: A | Increase in degradation products upon light stress ([5]; listed as amorphous form): no degradation was observed | DP[%] degradation products ([6]; 1% in mixture 1 (Dry Blend), 2 weeks 50° C., tight container): 0.8% | DP[%] degradation products ([6]; 1% in mixture 1 (Dry Blend), 2 weeks 50° C./75% RH): 0.8% | DP[%] degradation products ([6]; 1% in mixture 2 (Wet granulation), 2 weeks 50° C., tight container): 0.8% | DP[%] degradation products ([6]; 1% in mixture 2 (Wet granulation), 2 weeks 50° C./75% RH): 0.8% | DP[%] degradation products ([6]; 1% in mixture 3 (Roller compaction), 2 weeks 50° C., tight container): 0.8% | DP[%] degradation products ([6]; 1% in mixture 3 (Roller compaction), 2 weeks 50° C./75% RH): 0.8%

Compound: O=C1CC2(CCN(C(=O)NCc3ccc(F)cc3)CC2)Nc2ccc(F)cc21 [Hydrate HA, 6′-fluoro-N-(4-fluorobenzyl)-4′-oxo-3′,4′-dihydro-1′H-spiro[piperidine-4,2′-quinoline]-1-carboxamide]
Temperature of transformation into Form E ([2]; heating): about 70 °C | Form change after exposure to low humidity ([10]; about 12 hours at 5% RH): XRPD pattern changed to Form E | Stability of form in humidity controlled XRPD ([10]; relative humidity decreased from 40% RH to 5% RH at 25° C.): remains stable | Water activity (aw) at which the form is stable ([9]; 25° C.): ≥ 0.9 | Water activity (aw) at which the form is stable ([9]; 40° C.): > 0.95

More lines, now with the values ahead:

Thermal decomposition temperature ([2]; TGA): 240 °C | Chemical stability in the bulk [4, 11]: chemically stable | Bulk (XRPD) solid form after stress [4, 12]: No change | DP[%] degradation products, Bulk (HPLC) [4, 12]: 0.6% | DP[%] degradation products, Bulk (HPLC) ([4]; 1 week 80° C./75% RH): 0.7% | Bulk (XRPD) solid form after stress ([4]; 1 week 80° C./75% RH, listed as Modification A (NX-27)): No change | Physical stability in bulk ([4]; bulk): physically stable | Bulk (XRPD) solid form after stress [5]: No change | CL color [5, 13]: B | DP[%] degradation products, Bulk (HPLC) [5, 13]: 1.2% | Increase in degradation products upon light stress ([5]; listed as Modification A): 0.6% | DP[%] degradation products (HPLC area-%) ([7]; 0.1% solution or suspension, NMP): 14.3% | CL color ([7]; 0.1% solution or suspension, pH 4.7, acetate buffer): A | Suspension or clear solution after stress test ([7]; Water): ↓ | Suspension or clear solution after stress test ([7]; pH 1.0, 0.1N HCl): ↓ | Suspension or clear solution after stress test ([7]; pH 3.0, citrate buffer): ↓ | Suspension or clear solution after stress test ([7]; pH 6.8, phosphate buffer): ↓ | Suspension or clear solution after stress test ([7]; pH 9.0, borate buffer): ↓ | Hygroscopicity [8]: slightly hygroscopic | Maximum water uptake ([8]; 95% relative humidity at 25° C.): 0.6% | CL color ([1]; Acetonitrile): A | DP[%] degradation products (HPLC area-%) ([1]; Acetonitrile): 1.2% | CL color ([1]; Dioxane): A | DP[%] degradation products (HPLC area-%) ([1]; Dioxane): 56.8% | CL color ([1]; Ethanol): A | DP[%] degradation products (HPLC area-%) ([1]; Ethanol): 16.6% | CL color ([1]; MEK): A | DP[%] degradation products (HPLC area-%) ([1]; MEK): 7.6% | CL color ([1]; NMP): A | CL color ([1]; Water): A | DP[%] degradation products (HPLC area-%) ([1]; Water): 1.2% | CL color ([1]; pH 1.0, 0.1N HCl): A | DP[%] degradation products (HPLC area-%) ([1]; pH 1.0, 0.1N HCl): 5.6% | CL color ([1]; pH 3.0, citrate buffer): A | DP[%] degradation products (HPLC area-%) ([1]; pH 3.0, citrate buffer): 1.5% | DP[%] degradation products (HPLC area-%) ([1]; pH 4.7, acetate buffer): 1.4% | CL color ([1]; pH 6.8, phosphate buffer): A | DP[%] degradation products (HPLC area-%) ([1]; pH 6.8, phosphate buffer): 1.2% | CL color ([1]; pH 9.0, borate buffer): A | DP[%] degradation products (HPLC area-%) ([1]; pH 9.0, borate buffer): 1.1% | Suspension or clear solution after stress test ([1]; Acetonitrile): * | Suspension or clear solution after stress test ([1]; Dioxane): * | Suspension or clear solution after stress test ([1]; Ethanol): * | Suspension or clear solution after stress test ([1]; MEK): * | Suspension or clear solution after stress test ([1]; NMP): * | Suspension or clear solution after stress test ([1]; pH 4.7, acetate buffer): ↓ | DP[%] degradation products ([6]; 1% in mixture 1 (Dry Blend), 2 weeks 50° C., tight container, listed as Modification A (NX-27)): 0.4% | DP[%] degradation products ([6]; 1% in mixture 1 (Dry Blend), 2 weeks 50° C./75% RH, listed as Modification A (NX-27)): 0.4% | DP[%] degradation products ([6]; 1% in mixture 2 (Wet granulation), 2 weeks 50° C., tight container, listed as Modification A (NX-27)): 0.4% | DP[%] degradation products ([6]; 1% in mixture 2 (Wet granulation), 2 weeks 50° C./75% RH, listed as Modification A (NX-27)): 0.4% | DP[%] degradation products ([6]; 1% in mixture 3 (Roller compaction), 2 weeks 50° C., tight container, listed as Modification A (NX-27)): 0.4% | DP[%] degradation products ([6]; 1% in mixture 3 (Roller compaction), 2 weeks 50° C./75% RH, listed as Modification A (NX-27)): 0.4% | Water activity (aw) at which the form is stable ([9]; 40° C.): ≤ 0.8 | Crystal structure after slurrying (equilibration) for prolonged time ([3]; various solvents): preserves its crystal structure
Compound: O=C1CC2(CCN(C(=O)NCc3ccc(F)cc3)CC2)Nc2ccc(F)cc21 [Form A, 6′-fluoro-N-(4-fluorobenzyl)-4′-oxo-3′,4′-dihydro-1′H-spiro[piperidine-4,2′-quinoline]-1-carboxamide]

Temperature of transformation into Form A upon heating ([2]; heating): about 150 °C | Outcome of competitive slurry experiment with Form A [3]: conversion of Form C into Form A | Transition temperature Form C / Form A (enantiotropic relationship) ([3]; based on competitive slurry experiments): below 25 °C
Compound: O=C1CC2(CCN(C(=O)NCc3ccc(F)cc3)CC2)Nc2ccc(F)cc21 [Form C, 6′-fluoro-N-(4-fluorobenzyl)-4′-oxo-3′,4′-dihydro-1′H-spiro[piperidine-4,2′-quinoline]-1-carboxamide]
